The values that follow come from patent US12195372B2 (priority 2018, dated 2025).

Like-named read-outs stand apart in the source and are kept apart here.

For the data set the following is noted: room temperature (20-35° C.), atmospheric pressure.

Turning to benzalkonium-perchlorate [BNZ-ClO4], the ClO4 equilibrium conc. (matrix: deionized water) came to 0.20 mM, the ClO4 equilibrium conc. (matrix: ethanol) came out at 231 mM and the ClO4 equilibrium conc. (matrix: salt water) is recorded as 0.81 mM.
